Measured values published in patent US8378117B2 (priority 2005, dated 2013).
Values joined by “and” are separate entries in the source; they are usually repeats but may differ in a detail not shown here. Equal values may be shown once. Read-outs that look alike come from different tables or passages of the source.

Assays:
[1] = molecular target: T1, CB2 receptor (Homo sapiens, UniProt P34972); experiment: Functional cell-based assay, CB2 receptor mediated change in CRE β-gal expression (SK-N-MC cells); conditions: for EC50: SK-N-MC cells
T1 construct: expressed in transfected cells
T1 sequence (P34972 whole entry): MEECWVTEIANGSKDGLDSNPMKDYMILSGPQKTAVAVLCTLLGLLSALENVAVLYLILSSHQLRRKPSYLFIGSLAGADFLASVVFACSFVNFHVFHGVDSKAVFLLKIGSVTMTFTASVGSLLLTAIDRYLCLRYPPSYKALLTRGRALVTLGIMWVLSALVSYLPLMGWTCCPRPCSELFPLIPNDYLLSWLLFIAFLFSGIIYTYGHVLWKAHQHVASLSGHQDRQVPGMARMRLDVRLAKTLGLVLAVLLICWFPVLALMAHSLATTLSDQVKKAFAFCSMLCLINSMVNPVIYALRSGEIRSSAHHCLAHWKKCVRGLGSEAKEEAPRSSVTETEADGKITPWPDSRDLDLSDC
Text: The CB1 and CB2 receptors are G-protein coupled receptors (GPCR), which influence cell function via the Gi-protein. These receptors modulate the activity of intracellular adenylate cyclase, which in turn produces the intracellular signal messenger cyclic-AMP (cAMP).
At baseline, or during non-ligand bound conditions, these receptors are constitutively active and tonically suppress adenylate cyclase activity. The binding of an agonist causes further receptor activation and produces additional suppression of adenylate cyclase activity. The binding of an inverse agonist inhibits the constitutive activity of the receptors and results in an increase in adenylate cyclase activity.
By monitoring intracellular adenylate cyclase activity, the ability of compounds to act as agonists or inverse agonists can be determined.
Test compounds were evaluated in SK-N-MC cells which, using standard transfection procedures, were stably transfected with human cDNA for pcDNA3-CRE β-gal and pcDNA3 CB1 receptor (human) or pcDNA3 CB2 receptor (human). By expressing CRE β-gal, the cells produced β-galactosidase in response to CRE promoter activation by cAMP. Cells expressing CRE β-gal and either the human CB1 or CB2 receptor will produce less β-galactosidase when treated with a CB1/CB2 agonist and will produce more β-galactosidase when treated with a CB1/CB2 inverse agonist.
The cells were grown in 96-well plates under standard cell culture conditions at 37° C. in a 5% CO2 atmosphere and culture media (wherein the media was supplemented with 2 mM L-glutamine, […] sodium pyruvate, 10% FBS (fetal bovine serum) and antibiotics).
For cells expressing CRE β-gal and the CB2 receptor, CB2 agonists reduced β-galactosidase activity in a dose-dependent manner and CB2 inverse agonists increase β-galactosidase activity in a dose-dependent manner.
The change in forskolin induced β-galactosidase activity was determined by setting a vehicle treated cell's activity value at 100% and expressing the β-galactosidase activity measured in a corresponding compound treated cell as a percent of the vehicle treated cell activity.
The EC50 value for functional activity for compounds tested was calculated by linear regression and was obtained from studies in which varying compound concentrations were used.

[2] = molecular target: T2, CB1 receptor (Homo sapiens, UniProt P21554); experiment: cell-based
T2 construct: expressed in transfected cells
T2 sequence (P21554 whole entry): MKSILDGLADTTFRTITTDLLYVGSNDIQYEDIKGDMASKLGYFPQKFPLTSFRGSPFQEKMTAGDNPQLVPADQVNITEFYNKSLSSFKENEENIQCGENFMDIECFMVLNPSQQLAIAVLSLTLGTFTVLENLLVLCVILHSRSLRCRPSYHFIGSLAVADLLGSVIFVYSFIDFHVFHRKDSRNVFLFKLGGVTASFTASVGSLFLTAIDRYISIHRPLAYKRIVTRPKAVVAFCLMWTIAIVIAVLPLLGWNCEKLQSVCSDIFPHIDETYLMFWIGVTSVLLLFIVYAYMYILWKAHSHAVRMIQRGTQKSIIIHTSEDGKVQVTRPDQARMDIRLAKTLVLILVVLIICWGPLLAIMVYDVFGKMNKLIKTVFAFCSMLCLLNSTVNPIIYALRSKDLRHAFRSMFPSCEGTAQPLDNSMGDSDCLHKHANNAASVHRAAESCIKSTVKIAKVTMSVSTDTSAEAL
Outline: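 SK-N-MC cells stably co-expressing human CB1 and a CRE-β-galactosidase reporter; forskolin-induced β-gal activity measured after compound treatment, as % of vehicle-treated cells (100%). EC50 by linear regression from concentration series; otherwise % change at a single concentration.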

[3] = molecular target: T1, CB2 receptor; experiment: Binding assay for CB2 agonists or inverse agonists (SK-N-MC membranes, [3H]-CP-55,940); conditions: for inhibition at 0.2 µM: read-out: CB2 receptor binding percent inhibition, test concentration 0.2 μM (footnote 2)
Outline: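 Membranes from SK-N-MC cells stably expressing human CB2 were incubated with radioligand and test compounds for 90 min at 30 °C in Tris-HCl buffer, pH 7.5, with MgCl2, EDTA and fatty-acid-free BSA. Filter-bound radioactivity was counted; IC50 was derived by linear regression of percent inhibition.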

[4] = molecular target: T2, CB1 receptor; experiment: Binding assay for CB1 agonists or inverse agonists (SK-N-MC membranes, [3H]-CP-55,940); conditions: for IC50: Cannabinoid CB1 Receptor Binding IC50, calculated by linear regression from percent inhibition at various test concentrations; for inhibition at 1 µM: read-out: CB1 receptor binding percent inhibition, test concentration 1 μM (footnote 1)
Outline: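 Membranes from SK-N-MC cells stably expressing human CB1 incubated with compound and [3H]-CP-55,940 ([…]) for 90 min at 30° C in Tris-HCl pH 7.5, MgCl2, EDTA, fatty-acid-free BSA. Non-specific binding defined with 10 uM WIN 55,212; filtration, scintillation count; IC50 by linear regression.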

[5] = CB2 Receptor Functional Agonist EC50, forskolin induced β-galactosidase activity
[6] = CB1 Receptor Functional Agonist EC50, SK-N-MC cells, forskolin induced β-galactosidase activity
[7] = read-out: CB1 receptor binding percent inhibition, test concentration 0.2 μM (footnote 2)
[8] = CB1 Receptor Functional Inverse Agonist EC50, forskolin induced β-galactosidase activity, SK-N-MC cells
[9] = forskolin induced β-galactosidase activity, SK-N-MC cells, read-out: CB1 Receptor Functional Inverse Agonist EC50

SMILES	IC50 [4]	inhibition at 0.2 µM [3]	inhibition at 0.2 µM [4, 7]	EC50 [2, 8]	other results
O=C(N[C@H](CCO)c1ccccc1)c1n[nH]c2c1CCCC/C2=C\c1cccc(Cl)c1 [Cpd 250, (8E)-8-(3-chloro-benzylidene)-1,4,5,6,7,8-hexahydro-cycloheptapyrazole-3-carboxylic acid [(1R)-3-hydroxy-1-phenyl-propyl]-amide]					EC50 ([1]; forskolin induced β-galactosidase activity, read-out: CB2 Receptor Functional Agonist EC50): 130 nM; EC50 ([2]; SK-N-MC cells, forskolin induced β-galactosidase activity, read-out: CB1 Receptor Functional Agonist EC50): > 5000 nM
COC[C@@H](NC(=O)c1n[nH]c2c1CCCC[C@@H]2Cc1cccc(Cl)c1)c1ccccc1 (stereo in doubt) [Cpd 251, (8R*)-(3-chloro-benzyl)-1,4,5,6,7,8-hexahydro-cycloheptapyrazole-3-carboxylic acid [(1S)-2-methoxy-1-phenyl-ethyl]-amide]					EC50 [1, 5]: 3 nM; EC50 [2, 6]: 410 nM
C[C@@H](NC(=O)c1n[nH]c2c1CCCC/C2=C\c1ccc(Cl)cc1)c1ccccc1 [Cpd 142, (8E)-8-(4-chloro-benzylidene)-1,4,5,6,7,8-hexahydro-cycloheptapyrazole-3-carboxylic acid [(1R)-1-phenyl-ethyl]-amide]	10 nM				CB2 receptor binding percent inhibition ([3]; test concentration 0.2 μM (footnote 2)): ^(2)98%; CB2 receptor change in functional activity ([1]; one compound concentration, forskolin induced β-galactosidase activity): 1%; inhibition at 0.2 µM ([4]; read-out: CB1 receptor binding percent inhibition): 83%
COC[C@H](NC(=O)c1n[nH]c2c1CCCC[C@@H]2Cc1cccc(Cl)c1)c1ccccc1 (stereo in doubt) [Cpd 254, (8R*)-(3-chloro-benzyl)-1,4,5,6,7,8-hexahydro-cycloheptapyrazole-3-carboxylic acid [(1R)-2-methoxy-1-phenyl-ethyl]-amide]					EC50 [1, 5]: 2 nM; EC50 [2, 6]: 80 nM
COC[C@H](NC(=O)c1n[nH]c2c1CCCC[C@H]2Cc1cccc(Cl)c1)c1ccccc1 (stereo in doubt) [Cpd 253, (8S*)-(3-chloro-benzyl)-1,4,5,6,7,8-hexahydro-cycloheptapyrazole-3-carboxylic acid [(1R)-2-methoxy-1-phenyl-ethyl]-amide]					EC50 [1, 5]: 200 nM; EC50 [2, 6]: > 5000 nM
COc1ccc(/C=C2\CCCCc3c(C(=O)N[C@H](C)c4ccccc4)nn(-c4ccc(Cl)cc4Cl)c32)cc1 [Cpd 212, (8E)-1-(2,4-dichloro-phenyl)-8-(4-methoxy-benzylidene)-1,4,5,6,7,8-hexahydro-cycloheptapyrazole-3-carboxylic acid [(1R)-1-phenyl-ethyl]-amide]	6 nM	42%	94%	20 nM	
Cn1nc(C(=O)N[C@H](CCO)c2ccccc2)c2c1/C(=C/c1cccc(F)c1)CCCC2 [Cpd 249, (8E)-8-(3-fluoro-benzylidene)-1-methyl-1,4,5,6,7,8-hexahydro-cycloheptapyrazole-3-carboxylic acid [(1R)-3-hydroxy-1-phenyl-propyl]-amide]					EC50 [1, 5]: 47 nM; EC50 [2, 6]: > 5000 nM
O=C(NN1CCOCC1)c1nn(-c2ccc(Cl)cc2Cl)c2c1CCCCC2Cc1cccc(Cl)c1 (stereo not shown) [Cpd 117, 8-(3-chloro-benzyl)-1-(2,4-dichloro-phenyl)-1,4,5,6,7,8-hexahydro-cycloheptapyrazole-3-carboxylic acid morpholin-4-ylamide]					CB2 receptor binding percent inhibition ([3]; test concentration not stated): 22%; inhibition at 1 µM [4]: 44%; EC50 [2, 9]: 300 nM
O=C(N[C@H](CO)c1ccccc1)c1nn(-c2ccc(Cl)cc2Cl)c2c1CCCC/C2=C\c1ccc(F)cc1 [Cpd 204, (8E)-1-(2,4-dichloro-phenyl)-8-(4-fluoro-benzylidene)-1,4,5,6,7,8-hexahydro-cycloheptapyrazole-3-carboxylic acid [(1S)-2-hydroxy-1-phenyl-ethyl]-amide]	30 nM	34%	88%	3 nM	
C[C@@H](NC(=O)c1nn(-c2ccc(Cl)cc2Cl)c2c1CCCC/C2=C\c1ccc(F)cc1)c1ccccn1 [Cpd 225, (8E)-1-(2,4-dichloro-phenyl)-8-(4-fluoro-benzylidene)-1,4,5,6,7,8-hexahydro-cycloheptapyrazole-3-carboxylic acid [(1R)-1-pyridin-2-yl-ethyl]-amide]	5 nM and 6 nM and 7 nM	6%	90%	1 nM	inhibition at 1 µM ([3]; read-out: CB2 receptor binding percent inhibition, test concentration 1 μM (footnote 1)): 16%; CB1 receptor binding percent inhibition ([4]; test concentration 0.2 μM (footnote 2), 0.2 µM): 89%; CB1 receptor binding average percent inhibition ([4]; value shown is an average percent inhibition (footnote 5), concentration not given): 96%
C[C@@H](NC(=O)c1nn(-c2ccc(Cl)cc2Cl)c2c1CCCC/C2=C\c1ccc(F)cc1)C1CCCCC1 [Cpd 147, (8E)-1-(2,4-dichloro-phenyl)-8-(4-fluoro-benzylidene)-1,4,5,6,7,8-hexahydro-cycloheptapyrazole-3-carboxylic acid [(1R)-1-cyclohexyl-ethyl]-amide]	7 nM	23%	94%	30 nM	
C[C@H](NC(=O)c1nn(-c2ccc(Cl)cc2Cl)c2c1CCCC/C2=C\c1ccc(Cl)cc1)C1CCCCC1 [Cpd 138, (8E)-8-(4-chloro-benzylidene)-1-(2,4-dichloro-phenyl)-1,4,5,6,7,8-hexahydro-cycloheptapyrazole-3-carboxylic acid [(1S)-1-cyclohexyl-ethyl]-amide]	30 nM	22%	71%	100 nM	
O=C(NC1CCC1)c1nn(-c2ccc(Cl)cc2Cl)c2c1CCCCC2Cc1ccc(Cl)cc1 (stereo not shown) [Cpd 25, 8-(4-chloro-benzyl)-1-(2,4-dichloro-phenyl)-1,4,5,6,7,8-hexahydro-cycloheptapyrazole-3-carboxylic acid cyclobutylamide]					CB2 receptor binding percent inhibition ([3]; test concentration not stated): 19%; inhibition at 0.5 µM ([4]; read-out: CB1 receptor binding percent inhibition, test concentration 0.5 μM (footnote 10)): 30%; inhibition at 1 µM [4]: 71%; CB1 receptor binding percent inhibition ([4]; test concentration not stated): 51%; EC50 [2, 9]: 1200 nM
C[C@@H](NC(=O)c1nn(-c2ccccc2Cl)c2c1CCCC/C2=C\c1ccc(Cl)cc1)c1ccccc1 [Cpd 190, (8E)-8-(4-chloro-benzylidene)-1-(2-chloro-phenyl)-1,4,5,6,7,8-hexahydro-cycloheptapyrazole-3-carboxylic acid [(1R)-1-phenyl-ethyl]-amide]	80 nM	12%	76%	9 nM	
CC[C@@H](NC(=O)c1nn(-c2ccc(Cl)cc2Cl)c2c1CCCC/C2=C\c1ccc(F)cc1)c1ccccc1 [Cpd 202, (8E)-1-(2,4-dichloro-phenyl)-8-(4-fluoro-benzylidene)-1,4,5,6,7,8-hexahydro-cycloheptapyrazole-3-carboxylic acid [(1R)-1-phenyl-propyl]-amide]	10 nM	9%	91%	9 nM	
COc1ccc(/C=C2\CCCCc3c(C(=O)NC(C)c4ccccn4)nn(-c4ccc(Cl)cc4Cl)c32)cc1 (stereo not shown) [Cpd 222, (8E)-1-(2,4-dichloro-phenyl)-8-(4-methoxy-benzylidene)-1,4,5,6,7,8-hexahydro-cycloheptapyrazole-3-carboxylic acid (1-pyridin-2-yl-ethyl)-amide]	30 nM	41%	48%	30 nM	
C[C@H](NC(=O)c1nn(-c2ccc(Cl)cc2Cl)c2c1CCCC/C2=C\c1ccc(F)cc1)c1ccccc1 [Cpd 149, (8E)-1-(2,4-dichloro-phenyl)-8-(4-fluoro-benzylidene)-1,4,5,6,7,8-hexahydro-cycloheptapyrazole-3-carboxylic acid [(1S)-1-phenyl-ethyl]-amide]	100 nM	4%	66%	60 nM	
